Measured values reported in patent US20130109711A1, “NOVEL COMPOUNDS” (priority 2010, published 2013).

target: T1, human Cav2.2α (α1B) subunit, along with the human β3 and α2δ1 auxiliary subunits (Homo sapiens, UniProt Q00975); experiment: hCav2.2 assay (IonWorks planar array electrophysiology); format: cell-based; conditions: HEK293 cells; inhibition of current elicited by the 1st depolarising pulse by 50%; read-out: mean pIC50 value (tonic pIC50) (converted)
T1 construct: expressed in transfected cells; plasmids pCIN5-hCav2.2, pCIH-hCav β3, pCIP-α2δ1
Experimental: Compounds of the invention may be tested for in vitro biological activity in the hCav2.2 assay in accordance with the following studies:
Stable cell lines expressing the human Cav2.2α (α1B) subunit, along with the human β3 and α2δ1 auxiliary subunits were created following sequential transfection and selection of human embryonic kidney (HEK293) cells. HEK293 cells were cultured in Dulbecco's modified Eagles media/F12 media (Invitrogen, Cat #041-95750V) containing 10% fetal bovine serum, with added L-glutamine (2 mM; Invitrogen, Cat #25030-024) and non-essential amino acids (5%; Invitrogen, Cat #11140-035). Initially HEK293 cells were transfected with two plasmid vectors for expression of the hCav2.2α subunit (pCIN5-hCav2.2 which carries a neomycin resistance marker) and the hCav β3 subunit (pCIH-hCav β3 which carries a hygromycin resistance marker). Clonal cell lines were isolated following selection in media supplemented with 0.4 mg ml^−1 Geneticin G418 (Invitrogen, Cat #10131-027) and 0.1 mg ml^−1 hygromycin (Invitrogen, Cat #10687-010). These clonal cell lines were assessed for Cav2.2α/β3-mediated current expression using the IonWorks planar array electrophysiology technology (described below). A clonal line was identified that gave a reasonable level of functional Cav2.2α/β3 current expression. This cell line was transfected with a plasmid vector for expression of the human α2δ1 subunit (pCIP-α2δ1 which carries a puromycin resistance marker) and clonal cell lines isolated following selection in media containing 0.62 μg ml^−1 puromycin (Sigma, Cat # P-7255), in addition to 0.4 mg ml^−1 Geneticin G418 and 0.1 mg ml^−1 hygromycin. Several cell lines were identified that gave robust levels of Cav2.2α/β3/α2δ1-mediated current expression and one of these was selected for compound profiling. Expression of all three subunits within this cell line was continuously maintained by the inclusion of G418 (0.4 mg ml^−1), hygromycin (0.1 mg ml^−1) and puromycin (0.62 μg ml^−1). Cells were maintained at 37° C. in a humidified environment containing 5% CO2 in air. Cells were liberated from the T175 culture flasks for passage and harvesting using TrpLE (Invitrogen, Cat #12604-013).
Cells were grown to 30-60% confluence in T175 flasks and maintained at 30° C. for 24 hrs prior to recording. Cells were lifted by removing the growth media, washing with Ca^2+free PBS (Invitrogen, Cat #14190-094) and incubating with 3 ml of warmed (37° C.) TrpLE (Invitrogen, Cat #12604-013) for 6 minutes. Lifted cells were suspended in 10 ml of extracellular buffer. Cell suspension was then placed into a 15 ml tube and centrifuged for 2 minutes at 700 rpm. After centrifugation, the supernatant was removed and the cell pellet was resuspended in 4.5 ml of extracellular solution.
Currents were recorded at room temperature (21-23° C.) using the IonWorks planar array electrophysiology technology (Molecular Devices Corp.). Stimulation protocols and data acquisition were carried out using a microcomputer (Dell Pentium 4). In order to determine planar electrode hole resistances (Rp), a 10 mV, 160 ms potential difference was applied across each hole. These measurements were performed before cell addition. After cell addition a seal test was performed prior to antibiotic (amphotericin) circulation to achieve intracellular access. Leak subtraction was conducted in all experiments by applying a 160 ms hyperpolarizing (10 mV) prepulse 200 ms before the test pulses to measure leak conductance. Test pulses stepping from the holding potential (VH) of −90 mV to +10 mV were applied for 20 ms and repeated 10 times at a frequency of 10 Hz. In all experiments, the test pulse protocol was performed in the absence (pre-read) and presence (post-read) of a compound. Pre- and post-reads were separated by a compound addition followed by a 3-3.5 min incubation.
The intracellular solution contained the following (in mM): K-gluconate 120, KCl 20 mM, MgCl2 5, EGTA 5, HEPES 10, adjusted to pH 7.3. […]

T1 sequence (Q00975 whole entry): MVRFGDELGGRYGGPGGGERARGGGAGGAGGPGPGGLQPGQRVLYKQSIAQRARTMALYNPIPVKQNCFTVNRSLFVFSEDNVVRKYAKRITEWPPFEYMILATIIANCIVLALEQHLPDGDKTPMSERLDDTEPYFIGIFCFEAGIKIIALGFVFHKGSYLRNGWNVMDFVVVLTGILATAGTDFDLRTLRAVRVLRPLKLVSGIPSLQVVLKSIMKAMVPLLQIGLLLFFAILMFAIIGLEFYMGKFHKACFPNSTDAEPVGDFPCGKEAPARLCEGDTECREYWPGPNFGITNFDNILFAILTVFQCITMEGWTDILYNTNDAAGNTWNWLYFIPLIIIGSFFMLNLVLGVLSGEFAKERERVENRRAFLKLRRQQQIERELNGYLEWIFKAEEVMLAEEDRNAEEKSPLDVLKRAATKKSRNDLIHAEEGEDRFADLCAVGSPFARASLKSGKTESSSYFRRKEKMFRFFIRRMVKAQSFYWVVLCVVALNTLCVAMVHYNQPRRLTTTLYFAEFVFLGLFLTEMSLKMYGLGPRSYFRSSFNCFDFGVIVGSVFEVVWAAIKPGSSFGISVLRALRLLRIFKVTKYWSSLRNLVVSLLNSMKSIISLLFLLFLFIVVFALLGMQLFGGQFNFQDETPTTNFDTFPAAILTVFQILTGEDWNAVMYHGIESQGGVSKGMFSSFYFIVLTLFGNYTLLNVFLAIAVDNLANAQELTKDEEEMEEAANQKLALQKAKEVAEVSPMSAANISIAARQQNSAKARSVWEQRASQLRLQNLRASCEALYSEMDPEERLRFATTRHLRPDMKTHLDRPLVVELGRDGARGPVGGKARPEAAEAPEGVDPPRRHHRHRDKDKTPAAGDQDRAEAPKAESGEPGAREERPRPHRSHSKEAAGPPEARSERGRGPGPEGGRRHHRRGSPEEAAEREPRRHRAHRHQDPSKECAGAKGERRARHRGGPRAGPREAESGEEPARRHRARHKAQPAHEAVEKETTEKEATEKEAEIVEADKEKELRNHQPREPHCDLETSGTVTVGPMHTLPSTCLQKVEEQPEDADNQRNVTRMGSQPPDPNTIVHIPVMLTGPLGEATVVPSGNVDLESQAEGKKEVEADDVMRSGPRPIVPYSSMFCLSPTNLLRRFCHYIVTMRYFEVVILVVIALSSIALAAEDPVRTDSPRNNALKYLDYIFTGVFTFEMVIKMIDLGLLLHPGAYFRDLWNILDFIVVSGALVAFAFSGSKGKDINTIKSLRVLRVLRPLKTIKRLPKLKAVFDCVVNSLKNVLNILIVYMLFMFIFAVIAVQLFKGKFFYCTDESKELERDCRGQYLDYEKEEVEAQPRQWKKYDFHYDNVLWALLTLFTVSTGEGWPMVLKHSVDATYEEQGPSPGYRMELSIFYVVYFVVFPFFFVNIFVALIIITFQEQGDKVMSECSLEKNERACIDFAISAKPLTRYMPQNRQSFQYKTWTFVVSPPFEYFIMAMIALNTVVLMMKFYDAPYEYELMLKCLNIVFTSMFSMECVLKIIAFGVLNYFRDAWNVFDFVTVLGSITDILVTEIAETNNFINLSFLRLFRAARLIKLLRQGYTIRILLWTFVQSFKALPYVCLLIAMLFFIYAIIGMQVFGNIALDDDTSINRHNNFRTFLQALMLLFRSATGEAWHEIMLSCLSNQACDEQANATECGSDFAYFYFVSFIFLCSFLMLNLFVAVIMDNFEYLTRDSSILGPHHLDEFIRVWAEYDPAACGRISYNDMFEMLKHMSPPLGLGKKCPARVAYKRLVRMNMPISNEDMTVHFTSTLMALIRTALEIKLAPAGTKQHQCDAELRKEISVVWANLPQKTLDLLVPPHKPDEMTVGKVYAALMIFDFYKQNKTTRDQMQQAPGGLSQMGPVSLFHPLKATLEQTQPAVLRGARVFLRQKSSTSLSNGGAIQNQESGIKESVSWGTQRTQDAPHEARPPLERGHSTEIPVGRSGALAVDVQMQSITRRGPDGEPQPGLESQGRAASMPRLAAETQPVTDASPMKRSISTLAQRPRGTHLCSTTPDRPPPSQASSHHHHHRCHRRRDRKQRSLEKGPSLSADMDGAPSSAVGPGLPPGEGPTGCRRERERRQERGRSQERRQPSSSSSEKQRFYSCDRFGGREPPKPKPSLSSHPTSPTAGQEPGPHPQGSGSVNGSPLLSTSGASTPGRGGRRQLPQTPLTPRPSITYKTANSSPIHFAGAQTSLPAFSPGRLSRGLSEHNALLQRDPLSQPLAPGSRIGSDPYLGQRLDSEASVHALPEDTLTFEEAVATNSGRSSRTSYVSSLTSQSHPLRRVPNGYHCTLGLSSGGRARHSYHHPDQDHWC
T1 sequence (P54284 whole entry partner): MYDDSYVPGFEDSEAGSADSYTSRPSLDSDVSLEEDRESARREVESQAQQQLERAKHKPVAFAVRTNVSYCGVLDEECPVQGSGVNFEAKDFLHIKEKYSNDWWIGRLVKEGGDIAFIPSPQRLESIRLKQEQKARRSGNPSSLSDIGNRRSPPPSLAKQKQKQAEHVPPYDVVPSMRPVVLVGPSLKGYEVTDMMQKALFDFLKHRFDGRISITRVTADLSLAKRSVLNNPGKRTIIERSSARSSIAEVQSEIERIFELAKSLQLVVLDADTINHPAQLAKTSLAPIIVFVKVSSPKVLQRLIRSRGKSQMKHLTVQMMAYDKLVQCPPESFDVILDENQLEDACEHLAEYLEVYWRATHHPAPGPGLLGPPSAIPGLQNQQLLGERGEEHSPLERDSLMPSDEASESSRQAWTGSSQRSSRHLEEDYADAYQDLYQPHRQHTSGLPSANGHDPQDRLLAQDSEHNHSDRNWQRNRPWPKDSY
T1 sequence (P54289 25-946 partner limits assumed): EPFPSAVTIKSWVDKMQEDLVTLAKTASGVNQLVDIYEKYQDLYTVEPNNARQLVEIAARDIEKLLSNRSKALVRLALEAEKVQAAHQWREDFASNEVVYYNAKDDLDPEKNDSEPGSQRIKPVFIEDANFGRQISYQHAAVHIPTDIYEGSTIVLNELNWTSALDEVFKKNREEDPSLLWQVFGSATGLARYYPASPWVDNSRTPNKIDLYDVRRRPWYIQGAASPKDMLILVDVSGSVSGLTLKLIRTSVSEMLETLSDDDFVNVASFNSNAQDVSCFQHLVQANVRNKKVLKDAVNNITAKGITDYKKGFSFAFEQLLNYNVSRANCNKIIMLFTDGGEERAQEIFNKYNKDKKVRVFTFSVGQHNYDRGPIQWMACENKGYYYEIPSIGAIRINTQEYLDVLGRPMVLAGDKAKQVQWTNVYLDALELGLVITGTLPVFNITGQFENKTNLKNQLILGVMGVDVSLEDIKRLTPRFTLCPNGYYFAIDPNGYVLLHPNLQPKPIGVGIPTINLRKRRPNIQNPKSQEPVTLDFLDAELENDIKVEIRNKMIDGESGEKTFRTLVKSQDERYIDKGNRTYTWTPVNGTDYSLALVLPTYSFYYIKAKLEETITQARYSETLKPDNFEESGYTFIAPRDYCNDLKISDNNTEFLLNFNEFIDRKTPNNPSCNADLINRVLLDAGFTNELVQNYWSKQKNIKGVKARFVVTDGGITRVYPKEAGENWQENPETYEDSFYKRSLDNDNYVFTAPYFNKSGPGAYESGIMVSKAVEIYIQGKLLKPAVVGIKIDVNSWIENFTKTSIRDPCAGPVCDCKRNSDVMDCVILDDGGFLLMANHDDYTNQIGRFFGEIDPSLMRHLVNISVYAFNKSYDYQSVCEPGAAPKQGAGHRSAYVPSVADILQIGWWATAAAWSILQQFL
T1 sequence (P54289 947-1103 partner limits assumed): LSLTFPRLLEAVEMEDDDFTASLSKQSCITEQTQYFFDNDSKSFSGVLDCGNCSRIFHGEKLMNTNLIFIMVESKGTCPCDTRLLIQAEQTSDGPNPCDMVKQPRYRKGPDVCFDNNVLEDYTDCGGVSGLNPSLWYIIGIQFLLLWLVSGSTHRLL

IC50, ≥ 31.6 µM:
CN1CCC2(CCCN(S(=O)(=O)c3ccc(C(F)(F)F)cc3)C2)C1=O (stereo not drawn) [Compound 2, 2-Methyl-7-{[4-(trifluoromethyl)phenyl]sulfonyl}-2,7-diazaspiro[4.5]decan-1-one]
CN1CCCC2(CCCN(S(=O)(=O)c3ccc(C(F)(F)F)cc3)C2)C1=O (stereo not drawn) [Compound 5, 2-Methyl-8-{[4-(trifluoromethyl)phenyl]sulfonyl}-2,8-diazaspiro[5.5]undecan-1-one]
O=C1NCCC12CCCN(S(=O)(=O)c1cc(C(F)(F)F)ccc1C(F)(F)F)C2 (stereo not drawn) [Compound 16, 7-{[2,5-Bis(trifluoromethyl)phenyl]sulfonyl}-2,7-diazaspiro[4.5]decan-1-one]
Cc1cc(C(F)(F)F)cc(S(=O)(=O)N2CCCC3(CCNC3=O)C2)c1 (stereo not drawn) [Compound 25, 7-{[3-Methyl-5-(trifluoromethyl)phenyl]sulfonyl}-2,7-diazaspiro[4.5]decan-1-one]
O=C1NCCCC12CCCN(S(=O)(=O)c1ccc(C(F)(F)F)cc1)C2 (stereo not drawn) [Compound 10, 8-{[4-(Trifluoromethyl)phenyl]sulfonyl}-2,8-diazaspiro[5.5]undecan-1-one]
Cc1ccc(S(=O)(=O)N2CCCC3(CCNC3=O)C2)cc1C(F)(F)F (stereo not drawn) [Compound 23, 7-{[4-Methyl-3-(trifluoromethyl)phenyl]sulfonyl}-2,7-diazaspiro[4.5]decan-1-one]
O=C1NCCC12CCCN(S(=O)(=O)c1ccc(OC(F)(F)F)c(Cl)c1)C2 (stereo not drawn) [Compound 20, 7-({3-Chloro-4-[(trifluoromethyl)oxy]phenyl}sulfonyl)-2,7-diazaspiro[4.5]decan-1-one]
O=C1NCCCC12CCCN(S(=O)(=O)c1cccc(C(F)(F)F)c1)C2 (stereo not drawn) [Compound 12, 8-{[3-(Trifluoromethyl)phenyl]sulfonyl}-2,8-diazaspiro[5.5]undecan-1-one]
O=C1NCCC12CCCN(S(=O)(=O)c1cc(F)cc(C(F)(F)F)c1)C2 (stereo not drawn) [Compound 14, 7-{[3-Fluoro-5-(trifluoromethyl)phenyl]sulfonyl}-2,7-diazaspiro[4.5]decan-1-one]
Cc1ccc(S(=O)(=O)N2CCCC3(CCNC3=O)C2)c(OC(F)(F)F)c1 (stereo not drawn) [Compound 24, 7-({4-Methyl-2-[(trifluoromethyl)oxy]phenyl}sulfonyl)-2,7-diazaspiro[4.5]decan-1-one]
O=C1NCCC12CCCN(S(=O)(=O)c1cc(Cl)cc(Cl)c1)C2 (stereo not drawn) [Compound 19, 7-[(3,5-Dichlorophenyl)sulfonyl]-2,7-diazaspiro[4.5]decan-1-one]
O=C1NCCC12CCCN(S(=O)(=O)c1ccc(OC(F)(F)F)cc1)C2 (stereo not drawn) [Compound 6, 7-({4-[(Trifluoromethyl)oxy]phenyl}sulfonyl)-2,7-diazaspiro[4.5]decan-1-one]
O=C1NCCC12CCCN(S(=O)(=O)c1ccc(C(F)(F)F)cc1Br)C2 (stereo not drawn) [Compound 21, 7-{[2-Bromo-4-(trifluoromethyl)phenyl]sulfonyl}-2,7-diazaspiro[4.5]decan-1-one]
Cc1ccc(S(=O)(=O)N2CCCC3(CCNC3=O)C2)c(C)c1 (stereo not drawn) [Compound 7, 7-[(2,4-Dimethylphenyl)sulfonyl]-2,7-diazaspiro[4.5]decan-1-one]
O=C1OCCC12CCCN(S(=O)(=O)c1ccc(C(F)(F)F)cc1)C2 (stereo not drawn) [Compound 28, 7-{[4-(Trifluoromethyl)phenyl]sulfonyl}-2-oxa-7-azaspiro[4.5]decan-1-one]
O=C1NCCC12CCCN(S(=O)(=O)c1cccc(OC(F)F)c1)C2 (stereo not drawn) [Compound 33, 7-({3-[(Difluoromethyl)oxy]phenyl}sulfonyl)-2,7-diazaspiro[4.5]decan-1-one]
CCOc1ccc(S(=O)(=O)N2CCCC3(CCCN(C)C3=O)C2)cc1 (stereo not drawn) [Compound 34, 8-{[4-(Ethyloxy)phenyl]sulfonyl}-2-methyl-2,8-diazaspiro[5.5]undecan-1-one]
Cc1ccc(S(=O)(=O)N2CCCC3(CCCNC3=O)C2)cc1 (stereo not drawn) [Compound 35, 8-[(4-Methylphenyl)sulfonyl]-2,8-diazaspiro[5.5]undecan-1-one]
O=C1NCCCC12CCCN(S(=O)(=O)c1cc(C(F)(F)F)ccc1C(F)(F)F)C2 (stereo not drawn) [Compound 18, 8-{[2,5-Bis(trifluoromethyl)phenyl]sulfonyl}-2,8-diazaspiro[5.5]undecan-1-one]
O=C1NCCCC12CCCN(S(=O)(=O)c1cc(C(F)(F)F)cc(C(F)(F)F)c1)C2 (stereo not drawn) [Compound 27, 8-{[3,5-Bis(trifluoromethyl)phenyl]sulfonyl}-2,8-diazaspiro[5.5]undecan-1-one]
O=C1NCCC12CCCN(S(=O)(=O)c1cc(C(F)(F)F)cc(C(F)(F)F)c1)C2 (stereo not drawn) [Compound 8, 7-{[3,5-Bis(trifluoromethyl)phenyl]sulfonyl}-2,7-diazaspiro[4.5]decan-1-one]
O=C1OCCC12CCCN(S(=O)(=O)c1ccc(OC(F)(F)F)cc1)C2 (stereo not drawn) [Compound 29, 7-({4-[(Trifluoromethyl)oxy]phenyl}sulfonyl)-2-oxa-7-azaspiro[4.5]decan-1-one]
O=C1NCCCC12CCCN(S(=O)(=O)c1cccc(OC(F)F)c1)C2 (stereo not drawn) [Compound 31, 8-({3-[(Difluoromethyl)oxy]phenyl}sulfonyl)-2,8-diazaspiro[5.5]undecan-1-one]
O=C1NCCC12CCCN(S(=O)(=O)c1cccc(C(F)(F)F)c1)C2 (stereo not drawn) [Compound 9, 7-{[3-(Trifluoromethyl)phenyl]sulfonyl}-2,7-diazaspiro[4.5]decan-1-one]
O=C1NCCCC12CCCN(S(=O)(=O)c1ccc(OC(F)(F)F)cc1)C2 (stereo not drawn) [Compound 13, 8-({4-[(Trifluoromethyl)oxy]phenyl}sulfonyl)-2,8-diazaspiro[5.5]undecan-1-one]
Cc1ccc(C(F)(F)F)cc1S(=O)(=O)N1CCCC2(CCNC2=O)C1 (stereo not drawn) [Compound 26, 7-{[2-Methyl-5-(trifluoromethyl)phenyl]sulfonyl}-2,7-diazaspiro[4.5]decan-1-one]
O=C1NCCCC12CCCN(S(=O)(=O)c1cc(F)cc(C(F)(F)F)c1)C2 (stereo not drawn) [Compound 17, 8-{[3-Fluoro-5-(trifluoromethyl)phenyl]sulfonyl}-2,8-diazaspiro[5.5]undecan-1-one]
COc1ccc(C(F)(F)F)cc1S(=O)(=O)N1CCCC2(CCNC2=O)C1 (stereo not drawn) [Compound 32, 7-{[2-(Methyloxy)-5-(trifluoromethyl)phenyl]sulfonyl}-2,7-diazaspiro[4.5]decan-1-one]
O=C1NCCC12CCCN(S(=O)(=O)c1cccc(OC(F)(F)F)c1)C2 (stereo not drawn) [Compound 15, 7-({3-[(Trifluoromethyl)oxy]phenyl}sulfonyl)-2,7-diazaspiro[4.5]decan-1-one]
Cc1ccc(S(=O)(=O)N2CCCC3(CCNC3=O)C2)c(C(F)(F)F)c1 (stereo not drawn) [Compound 30, 7-{[4-Methyl-2-(trifluoromethyl)phenyl]sulfonyl}-2,7-diazaspiro[4.5]decan-1-one]
